The supplement of paper PMC11061612

Assays:
Experiment in all cases: combination Emax (second highest fraction inhibited in the dose matrix, 72 h); higher = more inhibition; extreme values may be limits of the assay
[1] = system: NCI-H1944 (Lung Adenocarcinoma)
In short: (§1)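 Cell lines in DMEM/F12 or RPMI with 10% FBS were plated in 1536-well plates, held 24 hours at 37°C, 5% CO2, then given two-drug dose matrices for 72 hours (DMSO typically 0.2%). Viability was read by CellTiter-Glo 2.0 luminescence and scaled as inhibition from 0 (vehicle wells) to 1 (blank wells). Combination Emax is the second-highest inhibition in the matrix; Bliss excess is observed combination effect minus expected EA + EB − EA·EB, EA and EB being single-agent effects.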

[2] = system: IGROV-1 (Ovarian Carcinoma)
In short: as §1

SK-N-DZ (Neuroblastoma) = system: SK-N-DZ (Neuroblastoma)
In short: as §1

[3] = system: L-363 (Plasma Cell Myeloma)
In short: as §1

[4] = system: NCI-H2023 (Non-Small Cell Lung Carcinoma)
In short: as §1

[5] = system: KNS-62 (Squamous Cell Lung Carcinoma)
In short: as §1

SK-MEL-24 (Melanoma) = system: SK-MEL-24 (Melanoma)
In short: as §1

[6] = system: Daudi (Burkitt's Lymphoma)
In short: as §1

[7] = system: CAL-85-1 (Breast Carcinoma)
In short: as §1

[8] = system: SCC90 (Head and Neck Carcinoma)
In short: as §1

DK-MG (Glioblastoma) = system: DK-MG (Glioblastoma)
In short: as §1

[9] = system: NTERA-2-cl-D1 (Other Solid Carcinomas)
In short: as §1

NCI-H2452 (Mesothelioma) = system: NCI-H2452 (Mesothelioma)
In short: as §1

[10] = system: OVKATE (Ovarian Carcinoma)
In short: as §1

[11] = system: TK (B-Cell Non-Hodgkin's Lymphoma)
In short: as §1

[12] = system: RS4-11 (B-Lymphoblastic Leukemia)
In short: as §1

[13] = system: JURL-MK1 (Chronic Myelogenous Leukemia)
In short: as §1

[14] = system: TOV-21G (Ovarian Carcinoma)
In short: as §1

[15] = system: JJN-3 (Plasma Cell Myeloma)
In short: as §1

Structure (SMILES) | combination Emax [1] | combination Emax [2] | combination Emax (SK-N-DZ (Neuroblastoma)) | combination Emax [3] | combination Emax [4] | combination Emax [5] | combination Emax (SK-MEL-24 (Melanoma)) | combination Emax [6] | combination Emax [7] | combination Emax [8] | combination Emax (DK-MG (Glioblastoma)) | combination Emax [9] | combination Emax (NCI-H2452 (Mesothelioma)) | combination Emax [10] | combination Emax [11] | combination Emax [12] | combination Emax [13] | combination Emax [14] | combination Emax [15]
CC1(C)CCC(CN2CCN(c3ccc(C(=O)NS(=O)(=O)c4ccc(NCC5CCOCC5)c([N+](=O)[O-])c4)c(Oc4cnc5[nH]ccc5c4)c3)CC2)=C(c2ccc(Cl)cc2)C1 [Venetoclax] + CCN(CCO)CCCOc1ccc2c(Nc3cc(CC(=O)Nc4cccc(F)c4)[nH]n3)ncnc2c1 [AZD2811] (first compound max 1 µM, 7x7, partner max 1 µM) | 0.255 | 0.255 | 0.552 | 0.865 | 0.378 | 0.275 | 0.248 | 0.366 | 0.156 | 0.552 | 0.283 | 0.831 | 0.259 | 0.153 | 1 | 1 | 0.445 | 0.354 | 0.806
CC1(C)CCC(CN2CCN(c3ccc(C(=O)NS(=O)(=O)c4ccc(NCC5CCOCC5)c([N+](=O)[O-])c4)c(Oc4cnc5[nH]ccc5c4)c3)CC2)=C(c2ccc(Cl)cc2)C1 [Venetoclax] + Cn1cnc2c(F)c(Nc3ccc(Br)cc3Cl)c(C(=O)NOCCO)cc21 [Selumetinib] (first compound max 1 µM, 7x7, partner max 3 µM) | 0.239 | 0.595 | 0.246 | 0.833 | 0.177 | 0.253 | 0.553 | 0.115 | 0.356 | 0.726 | 0.362 | 0.742 | 0.181 | 0.217 | 0.981 | 1 | 0.876 | 0.216 | 0.462
CC1(C)CCC(CN2CCN(c3ccc(C(=O)NS(=O)(=O)c4ccc(NCC5CCOCC5)c([N+](=O)[O-])c4)c(Oc4cnc5[nH]ccc5c4)c3)CC2)=C(c2ccc(Cl)cc2)C1 [Venetoclax] + C=CCn1c(=O)c2cnc(Nc3ccc(N4CCN(C)CC4)cc3)nc2n1-c1cccc(C(C)(C)O)n1 [AZD1775] (first compound max 1 µM, partner max 1 µM) | 0.728 | 0.819 | 0.999 | 1 | 0.713 | 0.544 | 0.401 | 0.663 | 0.473 | 0.838 | 0.452 | 0.856 | 0.739 | 0.381 | 1 | 1 | 0.999 | 0.703 | 0.693
C=CCn1c(=O)c2cnc(Nc3ccc(N4CCN(C)CC4)cc3)nc2n1-c1cccc(C(C)(C)O)n1 [AZD1775] + C[C@@H]1COCCN1C2=NC(=NC(=C2)C3(CC3)[S@](=N)(=O)C)C4=C5C=CNC5=NC=C4 [AZD6738] (first compound max 1 µM, partner max 10 µM) | 0.852 | 0.827 | 1 | 0.977 | 0.885 | 0.565 | 0.725 | 0.901 | 0.669 | 0.927 | 0.42 | 0.943 | 0.747 | 0.422 | 0.94 | 0.994 | 1 | 0.71 | 0.832
Cc1c2c(nn1C)CSCc1cc(n(C)n1)CSc1cc(c3ccccc3c1)OCCCc1c(C(=O)O)n(C)c3c-2c(Cl)ccc13 [AZD5991] + C1CN(CCC1(C(=O)N[C@@H](CCO)C2=CC=C(C=C2)Cl)N)C3=NC=NC4=C3C=CN4 [Capivasertib] (first compound max 1 µM, 7x7, partner max 3 µM) | 0.344 | 0.767 | 0.182 | 1 | 0.299 | 0.31 | 0.439 | 0.348 | 0.145 | 0.966 | 0.86 | 0.529 | 0.253 | 0.273 | 0.17 | 0.519 | 0.729 | 0.634 | 1
Cc1c2c(nn1C)CSCc1cc(n(C)n1)CSc1cc(c3ccccc3c1)OCCCc1c(C(=O)O)n(C)c3c-2c(Cl)ccc13 [AZD5991] + CC1(C)CCC(CN2CCN(c3ccc(C(=O)NS(=O)(=O)c4ccc(NCC5CCOCC5)c([N+](=O)[O-])c4)c(Oc4cnc5[nH]ccc5c4)c3)CC2)=C(c2ccc(Cl)cc2)C1 [Venetoclax] (first compound max 1 µM, 7x7, partner max 1 µM) | 0.214 | 0.469 | 0.479 | 1 | 0.205 |  | 0.336 | 0.258 | 0.122 | 0.934 | 0.613 | 0.916 | 0.305 | 0.147 | 1 | 1 | 0.695 | 0.209 | 1
Cc1c2c(nn1C)CSCc1cc(n(C)n1)CSc1cc(c3ccccc3c1)OCCCc1c(C(=O)O)n(C)c3c-2c(Cl)ccc13 [AZD5991] + CCN(CCO)CCCOc1ccc2c(Nc3cc(CC(=O)Nc4cccc(F)c4)[nH]n3)ncnc2c1 [AZD2811] (first compound max 1 µM, 7x7, partner max 1 µM) | 0.35 | 0.346 | 0.293 | 1 | 0.333 | 0.244 | 0.362 | 0.806 | 0.267 | 0.908 | 0.839 | 0.821 | 0.452 | 0.253 | 0.289 | 0.991 | 0.901 | 0.4 | 1
CC1(C)CCC(CN2CCN(c3ccc(C(=O)NS(=O)(=O)c4ccc(NCC5CCOCC5)c([N+](=O)[O-])c4)c(Oc4cnc5[nH]ccc5c4)c3)CC2)=C(c2ccc(Cl)cc2)C1 [Venetoclax] + C[C@@H](Nc1cc(F)cc(F)c1)c1cc(C(=O)N(C)C)cc2c(=O)cc(N3CCOCC3)oc12 [AZD8186] (first compound max 1 µM, 7x7, partner max 3 µM) | 0.184 | 0.668 | 0.256 | 0.805 | 0.416 | 0.133 | 0.321 | 0.271 | 0.146 | 0.29 | 0.372 | 0.805 | 0.268 | 0.262 | 1 | 1 | 0.095 | 0.149 | 0.232
CN(C)CCCOc1ccc(-c2ccc3ncc4c(c3c2)n(C2CCOCC2)c(=O)n4C)cn1 [AZD0156] + CCN(CCO)CCCOc1ccc2c(Nc3cc(CC(=O)Nc4cccc(F)c4)[nH]n3)ncnc2c1 [AZD2811] (first compound max 1 µM, 7x7, partner max 1 µM) | 0.205 | 0.539 | 0.391 | 0.192 | 0.252 | 0.141 | 0.16 | 0.497 | 0.104 | 0.231 | 0.204 | 0.469 | 0.221 | 0.127 | 0.273 | 0.979 | 0.554 | 0.266 | 0.404
C[C@@H]1COCCN1c1cc(C2([S@](C)(=N)=O)CC2)nc(-c2ccnc3[nH]ccc23)n1 [AZD6738] + O=C(c1cc(Cc2n[nH]c(=O)c3ccccc23)ccc1F)N1CCN(C(=O)C2CC2)CC1 [Olaparib] (first compound max 10 µM, 7x7, partner max 10 µM) | 0.745 | 0.704 | 0.915 | 0.854 | 0.846 | 0.413 | 0.551 | 0.828 |  | 0.48 | 0.316 | 0.894 | 0.469 | 0.305 | 0.878 | 0.979 | 0.996 | 0.538 | 0.584
Cc1c2c(nn1C)CSCc1cc(n(C)n1)CSc1cc(c3ccccc3c1)OCCCc1c(C(=O)O)n(C)c3c-2c(Cl)ccc13 [AZD5991] + Cc1cc2ncnn2cc1Nc1ncc2c(n1)n(C1CCOCC1)c(=O)n2C [AZD7648] (first compound max 1 µM, 7x7, partner max 10 µM) | 0.384 | 0.625 | 0.207 | 1 | 0.441 | 0.277 | 0.232 | 0.328 | 0.402 | 0.937 | 0.509 | 0.662 | 0.409 | 0.284 | 0.204 | 0.501 | 0.773 |  | 1
CC(=O)c1c(C)c2cnc(Nc3ccc(N4CCNCC4)cn3)nc2n(C2CCCC2)c1=O [Palbociclib] + CN(CC[C@H](CSC1=CC=CC=C1)NC2=C(C=C(C=C2)S(=O)(=O)NC(=O)C3=CC=C(C=C3)N4CCC(CC4)[C@H](C5=CC=CC=C5C6=CC=C(C=C6)Cl)O)S(=O)(=O)C(F)(F)F)CCO [AZD4320] (first compound max 10 µM, 7x7, partner max 1 µM) | 0.628 | 0.793 | 0.992 |  |  |  |  | 0.561 |  | 0.862 | 0.389 |  |  |  | 0.996 | 1 | 1 | 0.626 | 0.388
COc1nnc2ccc(N3CCC(c4ccc(OCCN5CCN(C)C(=O)[C@H]5C)cc4)CC3)nn12 [AZD5153] + CN(CC[C@H](CSC1=CC=CC=C1)NC2=C(C=C(C=C2)S(=O)(=O)NC(=O)C3=CC=C(C=C3)N4CCC(CC4)[C@H](C5=CC=CC=C5C6=CC=C(C=C6)Cl)O)S(=O)(=O)C(F)(F)F)CCO [AZD4320] (first compound max 1 µM, 7x7, partner max 1 µM) | 0.616 | 0.608 | 0.922 |  |  |  |  | 0.58 |  | 0.588 | 0.614 |  |  |  | 1 | 1 | 0.994 | 0.807 | 0.969
